Test results reported in PMC5785490, “Retinoic acid prevents immunogenicity of milk lipocalin Bos d 5 through binding to its immunodominant T-cell epitope” (Scientific Reports, 2018).

Molecular target: T1, Bos d 5 (bovine beta-lactoglobulin) (Bos taurus, UniProt P02754)
T1 construct: gene LGB; commercially available bovine beta-lactoglobulin (L0130, Sigma); globular protein of 162 amino acid residues
Assay: intrinsic tryptophan fluorescence quenching (pH […] °C), supported by ANS displacement assay
Assay type: binding

T1 sequence (P02754 17-178): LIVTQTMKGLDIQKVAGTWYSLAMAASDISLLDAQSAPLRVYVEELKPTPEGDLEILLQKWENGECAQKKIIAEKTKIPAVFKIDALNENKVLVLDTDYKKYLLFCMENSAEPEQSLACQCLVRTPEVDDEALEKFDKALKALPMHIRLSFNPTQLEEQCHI

In the case of CC1=C(/C=C/C(C)=C/C=C/C(C)=C/C(=O)O)C(C)(C)CCC1 [RA, all trans-retinoic acid], the Kd is reported as 6.1 µM.
